How the values were obtained:
RSK4 kinase = RSK4 kinase (Homo sapiens (Human), UniProt Q9UK32); assay: In vitro enzyme activity assay (Kinase-Glo), RSK4; type: biochemical; details: 10 μM ATP, 30° C., 40 minutes
renal cancer cells ACHN = assay: Anti-cell proliferation activity (CCK8), ACHN; type: cell-based; details: Homo sapiens, 72 hours
[1] = tested on: esophageal squamous cell carcinoma cells TE10; assay: Anti-cell proliferation activity (CCK8), TE10; type: cell-based; details: Homo sapiens, TE-10, 72 hours
[2] = tested on: esophageal squamous cell carcinoma cells KYSE510; assay: Anti-cell proliferation activity (CCK8), KYSE510; type: cell-based; details: Homo sapiens, KYSE-510, 72 hours
[3] = tested on: esophageal squamous cell carcinoma cells KYSE150; assay: Anti-cell proliferation activity (CCK8), KYSE150; type: cell-based; details: Homo sapiens, KYSE-150, 72 hours

RSK4 kinase, sequence (Q9UK32 whole entry): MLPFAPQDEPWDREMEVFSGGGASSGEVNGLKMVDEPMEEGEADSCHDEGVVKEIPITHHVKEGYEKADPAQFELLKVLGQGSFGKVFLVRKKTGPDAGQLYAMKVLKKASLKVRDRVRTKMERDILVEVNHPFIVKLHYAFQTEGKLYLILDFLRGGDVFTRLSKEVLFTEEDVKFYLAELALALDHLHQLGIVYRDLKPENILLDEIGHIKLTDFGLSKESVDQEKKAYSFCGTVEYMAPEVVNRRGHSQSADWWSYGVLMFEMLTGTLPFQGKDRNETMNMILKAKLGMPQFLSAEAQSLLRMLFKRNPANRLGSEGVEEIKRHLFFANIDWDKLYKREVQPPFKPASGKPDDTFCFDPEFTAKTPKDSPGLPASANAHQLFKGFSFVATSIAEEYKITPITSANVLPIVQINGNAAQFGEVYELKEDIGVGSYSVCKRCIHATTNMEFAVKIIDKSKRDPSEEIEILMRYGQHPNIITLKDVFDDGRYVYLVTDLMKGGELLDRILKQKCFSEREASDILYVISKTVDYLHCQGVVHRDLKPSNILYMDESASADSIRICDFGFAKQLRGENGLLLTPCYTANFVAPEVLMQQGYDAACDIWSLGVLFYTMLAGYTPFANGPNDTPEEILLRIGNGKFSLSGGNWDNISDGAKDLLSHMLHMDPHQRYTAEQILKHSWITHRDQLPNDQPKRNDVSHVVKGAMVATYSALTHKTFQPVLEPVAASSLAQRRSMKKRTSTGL

IC50 (RSK4 kinase)	Compound	also measured
201 ± 77 nM	Cc1cc(=O)n(C2CCCCCC2)c2nc(Nc3ccc4[nH]ncc4c3)ncc12 [Compound 020, 2-((1H-indazol-5-yl)amino)-5-methyl-8-(cycloheptyl)pyrido[2,3-d]pyrimidin-7(8H)-one]	–
180 ± 16 nM	Cc1cc(=O)n(C2CCCC2)c2nc(Nc3ccc(F)c4[nH]ncc34)ncc12 [Compound 010]	–
39 ± 4 nM	Cc1cc(=O)n(C2CCCC2)c2nc(Nc3cnc4[nH]ncc4c3)ncc12 [Compound 013, 2-((1H-pyrazolo[3,4-b]pyridin-5-yl)amino)-8-cyclopentyl-5-methylpyrido[2,3-d]pyrimidin-7(8H)-one]	–
392 ± 162 nM	Cc1cc(=O)n(C2CCOC2)c2nc(Nc3ccc4[nH]ncc4c3)ncc12 (stereo not drawn) [Compound 021, 2-((1H-indazol-5-yl)amino)-5-methyl-8-(tetrahydrofuran-3-yl)pyrido[2,3-d]pyrimidin-7(8H)-one]	–
–	CC(C)CCN1c2nc(Nc3cc(F)c(O)c(F)c3)ncc2N(C)C(=O)C1C (stereo not drawn) [BI-D1870, reference compound]	IC50 (renal cancer cells ACHN): > 10000 nM; IC50 [1]: 3860 ± 760 nM; IC50 [2]: 11.7 ± 2.58 µM; IC50 [3]: 20.2 ± 1.56 µM
10800 ± 2030 nM	Cc1cc(=O)n(C2CCCC2)c2nc(Nc3ccc4[nH]c(=O)oc4c3)ncc12 [Compound 008, 6-((8-Cyclopentyl-5-methyl-7-oxo-7,8-dihydropyrido[2,3-d]pyrimidin-2-yl)amino)benzo[d]oxazol-2(3H)-one]	–
30 ± 12 nM	Cc1cc(=O)n(C2CCC(O)C2)c2nc(Nc3ccc4[nH]ncc4c3)ncc12 (stereo not drawn) [Compound 018, 2-((1H-indazol-5-yl)amino)-8-(3-hydroxycyclopentyl)-5-methylpyrido[2,3-d]pyrimidin-7(8H)-one]	–
86 ± 41 nM	Cc1cc(=O)n(C2CCCCC2)c2nc(Nc3ccc4[nH]ncc4c3)ncc12 [Compound 019, 2-((1H-indazol-5-yl)amino)-5-methyl-8-(cyclohexyl)pyrido[2,3-d]pyrimidin-7(8H)-one]	–
3020 ± 673 nM	Cc1cc(=O)n(C2CCCC2)c2nc(Nc3ccc4[nH]nnc4c3)ncc12 [Compound 004, 2-((1H-benzo[d][1,2,3]triazol-5-yl)amino)-8-cyclopentyl-5-methylpyrido[2,3-d]pyrimidin-7(8H)-one]	–
46 ± 4 nM	Cc1cc(=O)n(C2CCC(F)(F)C2)c2nc(Nc3ccc4c(c3)CC(=O)N4)ncc12 (stereo not drawn) [Compound 015, 8-(3,3-Difluorocyclopentyl)-5-methyl-2-((2-oxoindolin-5-yl)amino)pyrido[2,3-d]pyrimidin-7(8H)-one]	–
280 ± 54 nM	Cc1cc(=O)n(C2CCCC2)c2nc(Nc3ccc4[nH]nc(F)c4c3)ncc12 [Compound 012, 8-Cyclopentyl-2-[(3-fluoro-1H-indazol-5-yl)amino]-5-methylpyrido[2,3-d]pyrimidin-7(8H)-one]	–
139 ± 19 nM	CC(=O)N(c1cc(F)c(O)c(F)c1)c1ncc2c(C)cc(=O)n(C3CCCC3)c2n1 [Compound 002, N-(8-Cyclopentyl-5-methyl-7-oxo-7,8-dihydropyrido[2,3-d]pyrimidin-2-yl)-N-(3,5-difluoro-4-hydroxyphenyl)acetamide]	–
17 ± 6 nM	Cc1cc(=O)n(C2CCCC2)c2nc(Nc3ccc4c(c3)CC(=O)N4)ncc12 [Compound 007, 8-Cyclopentyl-5-methyl-2-((2-oxoindolin-5-yl)amino)pyrido[2,3-d]pyrimidin-7(8H)-one]	IC50 (renal cancer cells ACHN): 1940 ± 70 nM; IC50 [2]: 6.15 ± 0.27 µM; IC50 [3]: 4.65 ± 2.11 µM
44 ± 7 nM	Cc1c(Br)c(=O)n(C2CCCC2)c2nc(Nc3ccc4[nH]ncc4c3)ncc12 [Compound 011, 2-((1H-indazol-5-yl)amino)-6-bromo-8-cyclopentyl-5-methylpyrido[2,3-d]pyrimidin-7(8H)-one]	–
13 ± 3 nM	Cc1cc(=O)n(C2CCC(F)(F)C2)c2nc(Nc3cc(F)c4[nH]ncc4c3)ncc12 (stereo not drawn) [Compound 016, 8-(3,3-Difluorocyclopentyl)-2-((7-fluoro-1H-indazol-5-yl)amino)-5-methylpyrido[2,3-d]pyrimidin-7(8H)-one]	IC50 (renal cancer cells ACHN): 870 ± 370 nM; IC50 [1]: 1700 ± 1430 nM
12 ± 2 nM	Cc1cc(=O)n(C2CCC(F)(F)C2)c2nc(Nc3cnc4[nH]ncc4c3)ncc12 (stereo not drawn) [Compound 017, 2-((1H-pyrazolo[3,4-b]pyridin-5-yl)amino)-8-(3,3-difluorocyclopentyl)-5-methylpyrido[2,3-d]pyrimidin-7(8H)-one]	–
214 ± 20 nM	Cc1c(Br)c(=O)n(C2CCCC2)c2nc(Nc3ccc4c(c3)CC(=O)N4)ncc12 [Compound 014, 6-Bromo-8-cyclopentyl-5-methyl-2-(2-oxoindolin-5-ylamino)pyrido[2,3-d]pyrimidin-7(8H)-one]	–
39 ± 8 nM	Cc1cc(=O)n(C2CCCC2)c2nc(Nc3cc(F)c4[nH]ncc4c3)ncc12 [Compound 009, 8-Cyclopentyl-2-((7-fluoro-1H-indazol-5-yl)amino)-5-methylpyrido[2,3-d]pyrimidin-7(8H)-one]	–
12 ± 3 nM	Cc1cc(=O)n(C2CCCC2)c2nc(Nc3cc(F)c(O)c(F)c3)ncc12 [Compound 003, 8-Cyclopentyl-2-((3,5-difluoro-4-hydroxyphenyl)amino)-5-methylpyrido[2,3-d]pyrimidin-7(8H)-one]	IC50 (renal cancer cells ACHN): 3100 ± 110 nM; IC50 [2]: 3.13 ± 1.16 µM; IC50 [3]: 4.08 ± 1.12 µM
